# From US9682070B2, “Method and compositions for treatment or prevention of inflammatory conditions” (University of Rochester, priority 2007, dated 2017)
# “Also recorded” adds a separate entry of the source.
# Experiments:
# [1] = system: IκBα phosphorylation and degradation; test: Western blot of TNFα-induced IκBα phosphorylation and degradation in VSMCs; assay type: cell-based; details: rat aortic VSMCs; TNFα 10 ng/ml; vinpocetine 50 μM, nifedipine 30 μM, IC86340 15 μM, EGTA 2 mM, BAPTA/AM 30 μM
# Experimental: (§1) Rat aortic VSMCs were treated with TNFα (10 ng/ml) for different time periods (0-30 minutes) as indicated in the presence or absence of vinpocetine ([…]). Western Blotting analysis was carried out to evaluate the levels of phosphorylated IκBα, total IκBα- and β-actin. […] IKK kinase activity was analyzed by an immune complex kinase assay. […] VSMCs were treated with TNFα for 10 min in the presence of various doses of vinpocetine as indicated. FIG. 8D illustrates the relative IKK activity as indicated. Intensities of the GST-IκBα bands in the autoradiogram were measured by densitometric scanning. Results were normalized to the control ([vinpocetine]=0) that is arbitrarily set to 100%. *p<0.05, **p<0.01 vs. vitipocetine at zero. FIGS. 8E-H illustrate the effects of vinpocetine on NF-κB activation induced by expressing constitutive active form of either MEKK1 (CA-MEKK1) (FIG. 8E), IKKα (CA-IKKα) (FIG. 8F), IKKβ (CA-IKKβ) (FIG. 8G), or WT p65 (FIG. 8H) in VSMCs.
# (§2) Rat aortic VSMCs were treated with TNFα (10 ng/ml) for 10 minutes in the presence of either 50 μM vinpocetine, 30 μM nifedipine (Ca^2+ channel blocker), 15 μM IC86340 (PDE1 inhibitor), 2 mM EGTA (extracellular Ca^2+ chelator), or 30 μM BAPTA/AM (intracellular Ca^2+ chelator). […] Western Blotting analysis was carried out to evaluate the levels of phosphorylated IκBα total IκBα and β-actin. Data represent at least three independent experiments.
# Cells lysates were prepared in the buffer containing 20 mM Tris-HCl (pH8.0), 0.5 M NaCl, 0.25% Triton X-100, 1 mM EDTA, 1 mM EGTA, 10 mM-glycerophosphate, 10 mM NaF, 100 μM Na3VO4, 1 mM benzamidine, 2 μM PMSF, 1 mM DTT and protease inhibitor cocktail (Sigma, MO. USA), by scraping, sonication, and centrifugation at 12,000 g for 15 min. Supernatant were collected and then subjected to SDS-PAGE and Western blot analysis with indicated antibodies.
# IKK [2] = test: IKK immune complex kinase assay from TNFα-treated VSMCs; assay type: cell-based, rat; details: for effect on the ability of vinpocetine on IKK kinase activity, IκB phosphorylation, IκB degradation or NF-κB-dependent transcriptional activity: co-treatment with vinpocetine; for TNFα-induced IKK kinase activity: rat aortic VSMCs treated with TNFα 10 min in the presence of compound
# Experimental: as §1, §2
# Cell lysates were prepared as described above. 1 mg of cell lysates were incubated with 1-2 μg of anti-IKKα (Santa Cruz, Calif., USA) for 1-2 h, followed by 50μl of 50% of slurry protein A/G plus-Agarose for another 1 h or overnight at 4° C. Immunoprecipitants were then washed two times with lysis buffer and once with kinase buffer without ATP. In vitro kinase assay were performed in kinase buffer containing 20 mM HEPES (pH 7.7), 2 mM MgCl2, 2 mM MnCl2, 10 μM ATP, 5 μCi of [γ-^32P]ATP (Amersham Biosciences, NJ, USA), 10 mM glycerophosphate, 10 mM NaF, 100 μM Na3VO4, 1 mM benzamidine, 2 μM PMSF, 1 mM DTT and protease inhibitor cocktail (Sigma, MO, USA) at 30° C. for 30-60 min, in the presence of substrate GST-IκBα (AA 1-54) (kindly provided by Dae-Myung Jue, Catholic University of Korea). Proteins were separated by 12% SDS-PAGE and subjected to autoradiography. Phosphorylation of GST-IκBα was quantified in NIH Image 1.60.
# Because IKK is known as the major upstream kinase for IκBα phosphorylation and degradation, whether vinpocetine inhibits IκB phosphorylation and degradation via inhibition of IKK was determined. TNFα-induced activation of IKK was confirmed by performing IKK kinase assay in TNFα-stimulated VSMCs. The crude cell lysates from treated VSMCs were first immunoprecipitated with an anti-IKKα antibody and IKK kinase activity was then measured in vitro with IKK immune complexes incubated with the substrate GST-IκBα in the presence of [γ-^32P]-ATP.
# [3] = system: pro-inflammatory mediators at mRNA levels; test: Q-PCR of TNFα-induced pro-inflammatory mediators in rat aortic VSMCs; assay type: cell-based; details: TNFα 10 ng/ml 6 hours, vinpocetine 50 μM
# Experimental: (§3) Expression of TNFα, IL-1β, IL-8, MCP-1 and VCAM-1, ICAM-1, MIP-1 at mRNA levels were measured by Real-time quantitative RT-PCR (Q-PCR).
# (§4) Total RNA was isolated with TRIzol reagent (Invitrogen) by following the manufacturer's instructions. For the reverse transcription reaction, TaqMan reverse transcription reagents (Applied Biosystems) were used. In brief, the reverse transcription reaction was performed for 60 min at 37° C., followed by 60 min at 42° C. by using oligo (dT) and random hexamers. PCR amplifications were performed by using SYBR Green Universal Master Mix. In brief, reactions were performed in duplicate containing 2× Universal Master Mix, 1 μl of template cDNA and 100 nM primers in a final volume of 12.5 μl, and they were analyzed in a 96-well optical reaction plate (Applied Biosystems). The relative quantities of mRNAs were obtained by using the comparative Ct method and were normalized with predeveloped Taqman assay reagent rat or mouse glyceraldehydes-3-phosphate dehydrogenase or human cyclophilin as an endogenous control (Applied Biosystems).
# [4] = system: pro-inflammatory mediators at mRNA levels; test: Q-PCR of TNFα-induced pro-inflammatory mediators in HUVECs; assay type: cell-based, human; details: TNFα 10 ng/ml 6 hours, vinpocetine 50 μM
# Experimental: as §3, §4
# [5] = system: pro-inflammatory mediators at mRNA levels; test: Q-PCR of TNFα-induced pro-inflammatory mediators in A549 cells; assay type: cell-based, human; details: TNFα 10 ng/ml 6 hours, vinpocetine 50 μM
# Experimental: as §3, §4
# [6] = system: pro-inflammatory mediators at mRNA levels; test: Q-PCR of TNFα-induced pro-inflammatory mediators in RAW264.7; assay type: cell-based, mouse; details: TNFα 10 ng/ml 6 hours, vinpocetine 50 μM
# Experimental: as §3, §4
# [7] = system: U937 monocytes adhering to HUVECs; test: Monocyte adhesion assay; assay type: cell-based, human; details: 50 μM vinpocetine 30 min, then TNFα 10 ng/ml 6 hours
# [8] = system: monocyte chemotaxis to VSMCs; test: Monocyte chemotaxis assay (transwell migration, Boyden chamber); assay type: cell-based, rat; details: various doses; TNFα 10 ng/ml 9 hours; VSMC-conditional medium
# [9] = system: LPS-induced lung inflammation; test: Mouse model of lung inflammation induced by LPS; assay type: in vivo; details: mice
# [10] = system: TNFα-induced lung inflammation; test: Mouse model of lung inflammation induced by TNFα; assay type: in vivo; details: mice; TNFα i.t. (500 ng per mouse)
# Experimental: Lung tissues were collected and then stored at -80° C. for mRNA expression analysis. For polymorphonuclear neutrophil (PMN) recruitment analysis, broncho-alveolar lavage (BAL) was performed by cannulating the trachea with sterilized PBS, and cells from BAL was stained with Hemacolor (EM Science) after cytocentrifugation (Shandon Cytospin4, Thermo Electronic Co.). Three mice were used for each inoculation group. All animal experiments were approved by the institutional Animal Care and Use Committee at University of Rochester.
# NF-κB activation = test: NF-κB luciferase activity induced by CA-MEKK1, CA-IKKα, CA-IKKβ or WT p65 in VSMCs; assay type: cell-based, rat
# IKK [11] = test: In vitro IKK kinase assay, compound applied directly to the IKK immune complex; assay type: biochemical, rat; details: IKK immune complex in the test tube
# IKK [12] = test: In vitro IKK kinase assay in the presence of cell lysates from vinpocetine-treated VSMCs; assay type: biochemical, rat
# Experimental: Intensities of the GST-IκBα bands in the autoradiogram were measured by densitometric scanning.
# [13] = system: cell morphology and viability; test: Cytotoxic effects on cell morphology and viability; assay type: cell-based; details: at the tested doses
# [14] = system: NF-κB-dependent promoter activity; test: IL-1- and LPS-induced NF-κB-dependent promoter activity; assay type: cell-based
# [15] = patients, literature; cited from earlier work
# [16] = system: NF-κB-dependent promoter activity; test: NF-κB-Luc dual luciferase reporter assay in rat aortic VSMCs
smiles,measurement,setting,value
O=C(O)CN(CCOCCOCCN(CC(=O)O)CC(=O)O)CC(=O)O [EGTA],TNFα-induced IκBα phosphorylation and degradation,[1],none of them exhibited any significant inhibitory effects
same,"effect on the ability of vinpocetine on IKK kinase activity, IκB phosphorylation, IκB degradation or NF-κB-dependent transcriptional activity",IKK [2],did not significantly affect
same,TNFα-induced IKK kinase activity,IKK [2],none of them exhibited any significant inhibitory effects
CC(=O)OCOC(=O)CN(CC(=O)OCOC(C)=O)c1ccccc1OCCOc1ccccc1N(CC(=O)OCOC(C)=O)CC(=O)OCOC(C)=O [BAPTA/AM],TNFα-induced IκBα phosphorylation and degradation,[1],none of them exhibited any significant inhibitory effects
same,"effect on the ability of vinpocetine on IKK kinase activity, IκB phosphorylation, IκB degradation or NF-κB-dependent transcriptional activity",IKK [2],did not significantly affect
same,TNFα-induced IKK kinase activity,IKK [2],none of them exhibited any significant inhibitory effects
"CCOC(=O)C1=C[C@]2(CC)CCCN3CCc4c(n1c1ccccc41)[C@@H]32 [vinpocetine, (+)-vinpocetine]","TNFα-induced expression of TNFα, IL-1β, IL-8, MCP-1 and VCAM-1 mRNA",[3],potently inhibited
same,"TNFα-induced expression of TNFα, IL-1β, IL-8, MCP-1, VCAM-1 and ICAM-1 mRNA",[4],inhibit
same,"TNFα-induced expression of TNFα, IL-1β and IL-8 mRNA",[5],inhibit
same,"TNFα-induced expression of TNFα, IL-1β and MIP-2 mRNA",[6],inhibit
same,monocyte adhesion to HUVECs,[7],markedly inhibited
same,monocyte chemotaxis to VSMCs induced by TNFα,[8],inhibited monocyte chemotaxis to VSMCs induced by TNFα in a dose-dependent manner
same,"induction of TNFα, IL-1β and MIP-2 mRNA in the lungs","[9]; LPS 2 μg/mouse i.t., vinpocetine 2.5, 5, 10 mg/kg i.p.",dose-dependently inhibited; also recorded: significantly inhibited
same,PMN infiltration in BAL fluids,"[9]; LPS i.t., vinpocetine 10 mg/kg i.p.",significantly inhibited
same,induction of inflammatory mediators and PMN infiltration in the lungs,[10],also inhibited
same,TNFα-induced IκBα phosphorylation and degradation,[1],markedly inhibited
same,TNFα-induced IKK kinase activity,IKK [2],inhibited TNFα-induced IKK activity in a dose-dependent manner
same,NF-κB activation induced by CA-IKKα,NF-κB activation; constitutively active IKKα,inhibited
same,NF-κB activation induced by CA-IKKβ,NF-κB activation; constitutively active IKKβ,inhibited
same,CA-MEKK1-induced NF-κB activation,NF-κB activation; constitutively active MEKK1,significantly inhibited
same,"IKK activity, compound directly applied to IKK",IKK [11],No significant inhibitory effect; also recorded: did not inhibit IKK activity
same,inhibition of IKK activity by cell lysates from vinpocetine-treated cells,IKK [12]; cell lysates,50%
same,vinpocetine treatment concentration of lysate required for a significant effect on IKK inhibition ex vivo,IKK [12]; cell lysates,100 µM
same,IKK activity in the presence of cell lysates from vinpocetine-treated cells,IKK [12]; lysates of VSMCs preincubated with vinpocetine,inhibited IKK activity
same,cytotoxic effects on cell morphology and viability,[13],no significant cytotoxic effects
same,IL-1- and LPS-induced NF-κB-dependent promoter activity,[14],inhibited
same,"side effects, toxicity or contraindications at the therapeutic doses",[15],"no reports of significant side effects, toxicity or contraindications"
same,TNFα-induced NF-κB-dependent promoter activity,"[16]; rat aortic VSMCs, TNFα 10 ng/ml 6 hours, various doses",potently inhibited
NC1=N[C@H](O)[C@H]2[C@H]3O[C@]4(O)O[C@@H]([C@@H](O)[C@@]2(N1)[C@@H]4O)[C@]3(O)CO [tetrodotoxin],effect on the effect of vinpocetine on NF-κB-dependent transcription,[16],did not alter
